Measurements from ChEMBL document CHEMBL1155734, “Multiplolides A and B, new antifungal 10-membered lactones from Xylaria multiplex” (J Nat Prod, 2001).
≈ marks a conversion by molar mass, not a printed value. Calls of active or inactive are those of the source. The calls are words filed in the database; no cut-off is given here.

Tests used:
Plasmodium falciparum [1] = assay: Antimalarial activity as growth inhibition of Plasmodium falciparum K1 by [3H]hypoxanthine uptake; assay type: functional, organism-based
Candida albicans = assay: Antifungal activity against Candida albicans by colorimetric method; assay type: functional, organism-based
Plasmodium falciparum [2] = assay: Antimalarial activity as growth inhibition of Plasmodium falciparum K1 at 20 ug/mL by [3H]hypoxanthine uptake; assay type: functional, organism-based
BC1 = assay: Cytotoxicity against human BC1 cells at 20 ug/mL; assay type: functional, cell-based
KB = assay: Cytotoxicity against human KB cells at 20 ug/mL; assay type: functional, cell-based

Row | IC50 (Candida albicans) [µg/mL] | Compound | IC50 (Plasmodium falciparum [1]) [µg/mL] | Activity (Plasmodium falciparum [2]) | Activity (BC1) | Activity (KB)
1 |  | C[C@@H]1CC[C@H]2[C@@H](C)C(=O)O[C@@H]3O[C@@]4(C)CC[C@@H]1[C@]32OO4 [ARTEMISININ] | 0.001 (≈ 0.00354 µM) |  |  | 
2 | 0.01 (≈ 0.0108 µM) | C[C@@H]1[C@H](O)[C@@H](C)/C=C/C=C/C=C/C=C/C=C/C=C/C=C/[C@H](O[C@@H]2O[C@H](C)[C@@H](O)[C@H](N)[C@@H]2O)C[C@@H]2O[C@](O)(C[C@@H](O)C[C@@H](O)[C@H](O)CC[C@@H](O)C[C@@H](O)CC(=O)O[C@H]1C)C[C@H](O)[C@H]2C(=O)O [AMPHOTERICIN B] |  |  |  | 
3 | 7 (≈ 32.7 µM) | C[C@@H]1C[C@@H](O)[C@@H](O)/C=C/[C@@H]2O[C@@H]2C(=O)O1 [MULTIPLOLIDE A] |  | inactive | inactive | inactive
4 | 2 (≈ 7.08 µM) | C/C=C/C(=O)O[C@@H]1C[C@@H](C)OC(=O)C2OC2/C=C/[C@@H]1O (stereo not given in full) [MULTIPLOLIDE B] |  | inactive | inactive | inactive
